Results reported in patent publication US20080267888A1, “Heterocyclic Derivatives” (priority 2005, published 2008).

Key:
DPP IV = target: T1, DPP IV (Homo sapiens, UniProt P27487); test: DPP IV assay with human plasma as source of DPP IV; format: biochemical; details: 1 hr incubation, substrate H-gly-pro AMC, vs vehicle control
T1 construct: using human plasma as a source of DPP IV; from tissue; host or cells: human plasma
Experimental: DPP IV assay is carried by using human plasma as a source of DPP IV. The compounds were incubated at a concentration of 1 and 10 μM in an assay buffer containing the DPP IV enzyme for 1 hr, and then the substrate H-gly-pro AMC was added and further incubated for 20 minutes. Subsequently the reaction was stopped on addition of 25% glacial acetic acid. The plates were read in a spectrofluorimeter to get RFU on setting the excitation wavelength of 360 nm and emission wavelength of 460 nm. The percentage inhibition is calculated as compared to the vehicle control.

[1] = system: Streptozotocin induced diabetic mice; test: Antidiabetic activity in streptozotocin induced diabetic mice; format: in vivo, Swiss albino mice; details: plasma, 50 mg/kg oral for 7 days, female mice, vs control group
Experimental: Antidiabetic Activity in Streptozotocin Induced Diabetic Mice
Female Swiss albino mice, at the age of 10 weeks were used in the study. Diabetes was induced in the animals by injecting streptozotocin by i.p. route at a dose of 200-mg/kg-body weight. 48 hours after streptozotocin administration, the animals were kept fasting for 6 hours. Subsequently blood was collected, plasma separated and the glucose was estimated. Animals showing greater than 200 mg/dl glucose levels were considered as diabetic and these animals were randomly distributed into various groups. The compounds 2 listed in the table 3 were administered at a dose of 50-mg/kg body weight by oral route for 7 days. Later the animals were fasted for 6 hours, the blood was collected and the plasma was separated. Biochemical estimations like glucose, cholesterol and triglycerides were carried out using the plasma. The effect of the compounds mentioned in the table was expressed in terms of percentage reduction in biochemical values as compared to the control group.

T1 sequence (P27487 39-766 limits assumed): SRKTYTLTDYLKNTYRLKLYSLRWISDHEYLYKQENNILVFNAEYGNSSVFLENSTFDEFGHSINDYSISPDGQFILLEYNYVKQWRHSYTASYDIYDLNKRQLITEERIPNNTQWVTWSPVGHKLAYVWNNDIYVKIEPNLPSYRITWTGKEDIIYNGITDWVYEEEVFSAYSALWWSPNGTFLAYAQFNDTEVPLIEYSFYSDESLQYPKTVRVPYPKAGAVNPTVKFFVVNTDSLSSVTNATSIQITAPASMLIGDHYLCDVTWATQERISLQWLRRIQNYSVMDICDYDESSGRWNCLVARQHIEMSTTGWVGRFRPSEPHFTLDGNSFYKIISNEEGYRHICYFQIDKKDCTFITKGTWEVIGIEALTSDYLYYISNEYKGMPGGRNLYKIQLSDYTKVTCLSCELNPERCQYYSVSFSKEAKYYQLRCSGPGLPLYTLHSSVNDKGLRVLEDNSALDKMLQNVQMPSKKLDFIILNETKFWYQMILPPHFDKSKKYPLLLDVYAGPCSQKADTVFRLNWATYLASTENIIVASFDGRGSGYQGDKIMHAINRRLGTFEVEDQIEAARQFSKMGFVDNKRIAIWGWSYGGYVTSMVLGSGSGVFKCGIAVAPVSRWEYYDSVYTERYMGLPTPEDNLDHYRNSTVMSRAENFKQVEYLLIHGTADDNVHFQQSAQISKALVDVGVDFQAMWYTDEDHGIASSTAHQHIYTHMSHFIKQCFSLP

SMILES	inhibition at 1 µM (DPP IV) [%]	inhibition at 10 µM (DPP IV) [%]	% Reduction Glucose [1] [%]	% Reduction Triglyceride [1] [%]
O=C1COCC(Cc2ccc(Oc3ccc(/C=C4/C(=O)Nc5ccccc54)cc3Cl)cc2)N1 (stereo not shown) [Example 9]	6.3	7.5		
O=C1COCC(Cc2ccc(Oc3ccc(/C=C4\SC(=S)NC4=O)cc3C(F)(F)F)cc2)N1 (stereo not shown) [Example 18, 5-(4-{4-[(4-oxo-2-thioxo-1,3-thiazolidin-5-ylidene)methyl]-2-(trifluoromethyl)phenoxy}benzyl)morpholin-3-one]	7.3	11.8		
CN1C(=O)COCC1Cc1ccc(Oc2ccc(/C=C3\SC(=O)NC3=O)cc2)cc1 (stereo not shown) [Example 19, 5-(4-{4-[(4-methyl-5-oxomorpholin-3-yl)methyl]phenoxy}benzylidene)-1,3-thiazolidine-2,4-dione]	8.9	15.2		
O=C1COCC(Cc2ccc(Oc3ccc(/C=C4/C(=O)Nc5ccccc54)cc3F)cc2)N1 (stereo not shown) [Example 15]	12.1	9.1		
O=C1COCC(Cc2ccc(Oc3ccc(/C=C4\SC(=S)NC4=O)cc3)cc2)N1 (stereo not shown) [Example 2, 5-(4-{4-[(4-oxo-2-thioxo-1,3-thiazolidin-5-ylidene)methyl]phenoxy}benzyl)morpholin-3-one]			42.6	44.4
O=C1COCC(Cc2ccc(Oc3ccc(/C=C4\SC(=O)NC4=O)cc3Cl)cc2)N1 (stereo not shown) [Example 7, 5-(3-chloro-4-{4-[(5-oxomorpholin-3-yl)methyl]phenoxy}benzylidene)-1,3-thiazolidine-2,4-dione]			44.5	60.9
O=C1COCC(Cc2ccc(Oc3ccc(/C=C4\SC(=O)NC4=O)cc3)cc2)N1 (stereo not shown) [Example 1, 5-[4-(4-{[5-oxomorpholin-3-yl]methyl}phenoxy)benzylidene]-1,3-thiazolidine-2,4-dione]			41.6	
